“And” between values parts separate entries of the source, which are not always exact repeats. Identical values can stand only once. Like-named read-outs stand apart in the source and are kept apart here.
Key:
CTX-M-15 [1] = molecular target: T1, CTX-M-15 (Escherichia coli, UniProt Q9EXV5); assay: biochemical
Description: (§4) Kinetic parameters were calculated and analyzed using GraphPad Prism 6.
(§5) Diazabicyclooctanes were dissolved in DMSO (100 mM) and diluted to the desired concentration in 10 mM HEPES (pH 7.5) and 150 mM NaCl.

L2 [2] = molecular target: T2, L2 (Stenotrophomonas maltophilia, UniProt Q9RBQ1); assay: IC50, nitrocefin hydrolysis after 10-minute preincubation, L2; assay type: biochemical
Description: as §4, §5

KPC-2 [3] = molecular target: T3, KPC-2 (Klebsiella pneumoniae, UniProt Q9F663); conditions: after 24 hours of incubation; cited from earlier work
S. maltophilia K279a [4] = assay: MIC broth microdilution, S. maltophilia K279a; assay type: cell-based; conditions: for MIC: Stenotrophomonas maltophilia, K279A, read-out: MIC of β-lactam
Description: S. maltophilia K279a is a well-characterized isolate from Bristol, United Kingdom, and was obtained as previously reported ([46]).
(§1) MIC values were determined using broth microdilution, in triplicate, in cation-adjusted Mueller-Hinton broth (Sigma) according to the Clinical and Laboratory Standards Institute (CLSI) guidelines ([47]). […] Plates were incubated overnight at 37°C for 18 to 24 h, and the absorbance at 600 nm was read using a POLARstar Omega (BMG LabTech) plate reader.

S. maltophilia K279a [5] = conditions: with avibactam; cited from earlier work
K. pneumoniae Ecl8 pUBYT = assay: MIC broth microdilution, K. pneumoniae Ecl8 pUBYT (empty vector); assay type: cell-based; conditions: Klebsiella pneumoniae, ECL8PUBYT, read-out: MIC of β-lactam
Source text: (§2) The pUBYT vector containing blaKPC-3 under the ISKpn7 promoter was used as a template for site-directed mutagenesis to create pUBYT containing blaKPC-2 and blaKPC-4 with the same promoter ([45]). The single point mutation in KPC-2 (Y274H) and double point mutations in KPC-4 (P104R, V240G) were introduced using a QuikChange Lightning site-directed mutagenesis kit (Agilent Genomics) with the primers specified in Table S1 in the supplemental material. Klebsiella pneumoniae Ecl8 was transformed with the resulting pUBYT constructs via electroporation.
as §1

[6] = system: K. pneumoniae Ecl8 pUBYT KPC-2; assay: microbe, parasite or virus in culture; assay type: cell-based; conditions: Klebsiella pneumoniae
Source text: as §2, §1

[7] = system: K. pneumoniae Ecl8 pUBYT KPC-3; assay: microbe, parasite or virus in culture; assay type: cell-based; conditions: Klebsiella pneumoniae
Source text: as §2, §1

[8] = system: K. pneumoniae Ecl8 pUBYT KPC-4; assay: microbe, parasite or virus in culture; assay type: cell-based; conditions: Klebsiella pneumoniae
Source text: as §2, §1

[9] = system: KPC variants expressed in K. pneumoniae Ecl8; assay type: cell-based, Klebsiella pneumoniae; conditions: in the presence of 4 mg liter^−1 relebactam
Source text: as §2, §1

KPC-2 [10] = molecular target: T3, KPC-2; assay type: biochemical; conditions: nitrocefin as substrate; standard error in parentheses, n = 3
Description: as §4

KPC-3 [11] = molecular target: T4, KPC-3 (Klebsiella pneumoniae, UniProt Q9F663, H272Y); assay type: biochemical; conditions: nitrocefin as substrate; standard error in parentheses, n = 3
Description: as §4

KPC-4 [12] = molecular target: T5, KPC-4 (Klebsiella pneumoniae, UniProt Q9F663, P103R/V239G); assay: Steady-state nitrocefin hydrolysis, KPC-4; assay type: biochemical; conditions: nitrocefin as substrate; standard error in parentheses, n = 3
Description: as §4

L2 [13] = molecular target: T2, L2; assay: Direct competition of relebactam and nitrocefin (Kiapp, k2/K), L2; assay type: biochemical; conditions: Dixon plot, no preincubation; standard deviation in parentheses
Description: as §4
(2) E+I⇌k−1k1E:I⇌k−2k2E-I→k3E-I′→k4E+P
(§6) Complete progress curves were fitted to equation 5 in order to obtain values for kobs (pseudo-first-order rate constant for inactivation).(5) A=vf*t+(v0−vf)*((1−e^−kobs*t)/kobs)+A0
(§7) ([I]) according to equation 6, with the uncorrected value for k2/K (k2/K′) then equal to the slope of the line.(6) kobs=k−2+k2/K^′*[I]

CTX-M-15 [14] = molecular target: T1, CTX-M-15; assay: Direct competition of relebactam and nitrocefin (Kiapp, k2/K), CTX-M-15; assay type: biochemical
Description: as §4
(2) E+I⇌k−1k1E:I⇌k−2k2E-I→k3E-I′→k4E+P
as §6, §7

CTX-M-15 [15] = molecular target: T1, CTX-M-15; conditions: recombinant enzyme
Description: (§3) Final enzyme concentrations were as follows: 50 nM KPC-2, 5 nM KPC-3, 50 nM KPC-4, 50 pM CTX-M-15, and 50 pM L2. Complete progress curves were collected, and the results fitted to equation 8 to obtain koff.(8) A=vf*t+(v0−vf)*(1−e^−kofft)/koff+A0

KPC-2 [16] = molecular target: T3, KPC-2; conditions: recombinant enzyme
Description: as §3

KPC-3 [17] = molecular target: T4, KPC-3
Description: as §3

KPC-4 [18] = molecular target: T5, KPC-4
Description: as §3

L2 [19] = molecular target: T2, L2; conditions: recombinant enzyme
Description: as §3

[20] = molecular target: Pseudomonas-derived cephalosporinase-3 (PDC-3); conditions: read-out: Kiapp; cited from earlier work
OXA-48 = molecular target: OXA-48; parameters: method as in PMID 29627985; conditions: cited from earlier work
KPC-2 [21] = molecular target: T3, KPC-2; parameters: method as in PMID 29627985; conditions: cited from earlier work
KPC-2 [22] = molecular target: T3, KPC-2; conditions: cited from earlier work
[23] = system: O=C(Cc1cccs1)N[C@@H]1C(=O)N2C(C(=O)O)=C(/C=C/c3ccc([N+](=O)[O-])cc3[N+](=O)[O-])CS[C@H]12; assay: purified protein, by the assay type; conditions: other: nitrocefin as substrate; standard error in parentheses, n = 3; pH 7.5; 25.0 °C
[24] = ECL8PUBYTKPC2, read-out: MIC of β-lactam, no inhibitor present
[25] = ECL8PUBYTKPC3, read-out: MIC of β-lactam, no inhibitor present
[26] = ECL8PUBYTKPC4, read-out: MIC of β-lactam, no inhibitor present

NC(=O)[C@@H]1CC[C@@H]2CN1C(=O)N2OS(=O)(=O)O [Avibactam, avibactam]
IC50 (CTX-M-15 [1]): 0.0034 µM
IC50 (L2 [2]): 0.015 µM
KPC-2 remaining acylated (KPC-2 [3]): 10%

C[C@H]1[C@H](NC(=O)/C(=N\OC(C)(C)C(=O)O)c2csc(N)n2)C(=O)N1S(=O)(=O)O [Aztreonam, aztreonam]
MIC (S. maltophilia K279a [4]; +REL (relebactam, 4 mg/liter)): 8 µg/mL
MIC (S. maltophilia K279a [4]; no inhibitor present): > 256 µg/mL
aztreonam MIC (S. maltophilia K279a [4]; addition of relebactam): 8 µg/mL
aztreonam MIC (S. maltophilia K279a [4]; without inhibitor): 256 µg/mL
aztreonam MIC (S. maltophilia K279a [5]): 2 µg/mL

CC(C)(O/N=C(\C(=O)N[C@@H]1C(=O)N2C(C(=O)[O-])=C(C[n+]3ccccc3)CS[C@H]12)c1csc(N)n1)C(=O)O [Ceftazidime, ceftazidime]
MIC (S. maltophilia K279a [4]; +AVI (avibactam, 4 mg/liter)): 8 µg/mL
MIC (S. maltophilia K279a [4]; no inhibitor present): 16 µg/mL
MIC (K. pneumoniae Ecl8 pUBYT): < 0.125 µg/mL
MIC ([6]; ECL8PUBYTKPC2, read-out: MIC of β-lactam, +AVI (avibactam, 4 mg/liter)): 0.125 µg/mL
MIC [6, 24]: 16 µg/mL
MIC ([7]; ECL8PUBYTKPC3, read-out: MIC of β-lactam, +AVI (avibactam, 4 mg/liter)): < 0.125 µg/mL
MIC [7, 25]: 128 µg/mL
MIC ([8]; ECL8PUBYTKPC4, read-out: MIC of β-lactam, +AVI (avibactam, 4 mg/liter)): 1 µg/mL
MIC [8, 26]: 128 µg/mL

C[C@@H](O)[C@H]1C(=O)N2C(C(=O)O)=C(SCCN=CN)C[C@H]12 [Imipenem, imipenem]
MIC (S. maltophilia K279a [4]; +REL (relebactam, 4 mg/liter)): 64 µg/mL
MIC (S. maltophilia K279a [4]; no inhibitor present): 128 µg/mL
MIC (K. pneumoniae Ecl8 pUBYT): < 0.0625 µg/mL
MIC ([6]; ECL8PUBYTKPC2, read-out: MIC of β-lactam, +REL (relebactam, 4 mg/liter)): 0.5 µg/mL
MIC [6, 24]: 64 µg/mL
MIC ([7]; ECL8PUBYTKPC3, read-out: MIC of β-lactam, +REL (relebactam, 4 mg/liter)): < 0.125 µg/mL
MIC [7, 25]: 16 µg/mL
MIC ([8]; ECL8PUBYTKPC4, read-out: MIC of β-lactam, +REL (relebactam, 4 mg/liter)): 0.125 µg/mL
MIC [8, 26]: 0.5 µg/mL
imipenem MICs in all KPC producers [9]: ≤ 0.5 mg/L

O=C(Cc1cccs1)N[C@@H]1C(=O)N2C(C(=O)O)=C(/C=C/c3ccc([N+](=O)[O-])cc3[N+](=O)[O-])CS[C@H]12 [Nitrocefin, nitrocefin]
Km (KPC-2 [10]): 18.3 µM
kcat (KPC-2 [10]): 613 (9) s-1
Km (KPC-3 [11]): 36 µM
kcat (KPC-3 [11]): 88 (8) s-1
Km (KPC-4 [12]): 59 µM
kcat (KPC-4 [12]): 166 (44) s-1

O=C(NC1CCNCC1)[C@@H]1CC[C@@H]2CN1C(=O)N2OS(=O)(=O)O [Relebactam, relebactam]
IC50 (CTX-M-15 [1]): 0.4 µM
IC50 (L2 [2]): 0.47 µM
Ki (L2 [13]): 3 µM and 2.7 µM
Ki (CTX-M-15 [14]): 21 µM
t1/2 (CTX-M-15 [15]): 30 min
t1/2 (KPC-2 [16]): 13 min
reduction in off-rate compared with KPC-2 (KPC-3 [17]; KPC-3 vs KPC-2): ~4.5 fold
t1/2 (KPC-3 [17]; recombinant enzyme): 58 min
reduction in off-rate compared with KPC-2 (KPC-4 [18]; KPC-4 vs KPC-2): ~4.5 fold
t1/2 (KPC-4 [18]; recombinant enzyme): 61 min
t1/2 (L2 [19]): 21 min
Ki [20]: 3.4 µM

N#C[C@@H]1CC[C@@H]2CN1C(=O)N2OS(=O)(=O)O [WCK-4234]
Ki (OXA-48): 0.29 µM
off rate (KPC-2 [21]): 0.00045 s⁻¹

O=C(NNC(=O)[C@@H]1CC[C@@H]2CN1C(=O)N2OS(=O)(=O)O)[C@@H]1CCCNC1 [WCK-5107, zidebactam]
Ki value, fold higher than avibactam (KPC-2 [22]): 5 fold
Ki value, fold higher than relebactam (KPC-2 [22]): 2 fold

CTX-M-15 (Escherichia coli)
Km [23]: 63 (11) µM
kcat [23]: 312 (8) s-1
kcat/Km [23]: 5e+06 M⁻¹ s⁻¹

L2 (Stenotrophomonas maltophilia)
Km [23]: 206 (27) µM
kcat [23]: 813 (41) s-1
kcat/Km [23]: 4e+06 M⁻¹ s⁻¹
